Earlier results, collected in US20250302745A1, “COMPOSITIONS COMPRISING VANCOMYCIN” (Arecor Limited, priority 2022, published 2025).

Tested on: animal
Conditions: excipients of VancoReady; black box warning

Row | finding in animal reproductive studies | Compound
1 | cause fetal malformations | PEG400
2 | cause fetal malformations | CC(=O)N[C@H](C)C(=O)O [N-acetyl-D-alanine]
